Reference: BindingDB's records for doi:10.1021/jm00046a008 (University of Alabama At Birmingham, 1994)

Target: Carnitine O-acetyltransferase (Columba livia)
Test: Tested against pigeon breast carnitine acyltransferase

Ki | Compound
25 mM | CC(=O)NC(CC(=O)O)CC(C)(C)C (configuration not stated) [3-Acetylamino-5,5-dimethyl-hexanoic acid anion]
0.024 mM | CC(=O)NC(CC(=O)[O-])C[N+](C)(C)C (configuration not stated) [(2-Acetylamino-3-carboxy-propyl)-trimethyl-ammonium]
